Data as given in patent US20240083846A1, “SMAC MIMETICS FOR TREATMENT OF CANCER, PROCESS FOR PREPARATION AND PHARMACEUTICAL COMPOSITION THEREOF” (COUNCIL OF SCIENTIFIC & INDUSTRIAL RESEARCH, priority 2020, published 2024).
Entries after “also recorded” stand apart in the source; their conditions may differ.

Assays:
[1] = system: SW 620 cells; experiment: SRB cytotoxicity assay, SW 620; assay type: cell-based; conditions: Homo sapiens, SW-620
Method: (§1) In vitro cytotoxic activities of different compounds were assessed by using standard SRB assay in different cells. The absorbance of the treated and untreated cells was measured on a multi-well scanning spectrophotometer (Epoch Microplate Reader, Biotek, USA) at a wavelength of 510 nm. Percent growth inhibition was calculated by using the formula […].

[2] = system: HT29 cells; experiment: SRB cytotoxicity assay, HT29; assay type: cell-based; conditions: Homo sapiens, HT-29
Method: as §1

[3] = system: HCT 116 cells; experiment: SRB cytotoxicity assay, HCT 116; assay type: cell-based; conditions: Homo sapiens, HCT-116
Method: as §1

[4] = SRB cytotoxicity assay, VERO; assay type: cell-based, monkey; conditions: monkey, VERO cells; 10 μM, 48 hours, SRB assay; read-out: In vitro cytotoxicity at 10 μM dose, VERO (percent growth inhibition)
Method: as §1

[5] = system: VERO cells; experiment: SRB cytotoxicity assay, VERO; assay type: cell-based, monkey
Method: as §1

[6] = system: HCC1806 cells; experiment: SRB cytotoxicity assay, HCC1806; assay type: cell-based; conditions: Homo sapiens, Breast
Method: as §1
(§2) SMAC mimetics promotes tumor cell selective cytotoxic effects. SW 620, HT 29, HCT 116 and VERO cells were treated with series of Smac mimetics at 10 μM dose for 48 hours and cytotoxicity was measured by SRB assay. As C6 had shown robust in-vitro cytotoxic effect against tumor cells but not to VERO cells, we determined IC50 value of C6 against different types of cancer cell lines. ICso values are represented in Table 2.

[7] = system: MCF-7 cells; experiment: SRB cytotoxicity assay, MCF-7; assay type: cell-based; conditions: Homo sapiens, MCF7, Breast
Method: as §1, §2

[8] = system: 786-O cells; experiment: SRB cytotoxicity assay, 786-O; assay type: cell-based; conditions: Homo sapiens, 786-0, Kidney
Method: as §1, §2

[9] = system: PC-3 cells; experiment: SRB cytotoxicity assay, PC-3; assay type: cell-based; conditions: Homo sapiens, Prostrate
Method: as §1, §2

[10] = system: SK-OV-3 cells; experiment: SRB cytotoxicity assay, SK-OV-3; assay type: cell-based; conditions: Homo sapiens, Ovary
Method: as §1, §2

[11] = system: HEP-G2 cells; experiment: SRB cytotoxicity assay, HEP-G2; assay type: cell-based; conditions: Homo sapiens, HepG2, Liver
Method: as §1, §2

[12] = system: B-16 cells; experiment: SRB cytotoxicity assay, B-16; assay type: cell-based; conditions: B16, Melanoma (Mouse)
Method: as §1, §2

[13] = system: K562 cells; experiment: SRB cytotoxicity assay, K562; assay type: cell-based; conditions: Homo sapiens, Leukemia
Method: as §1, §2

[14] = Stability studies of C6 (SIF, SGF, plasma, microsomes); assay type: in vitro ADME
[15] = system: SW-620 xenograft; experiment: Cisplatin resistant SW-620 xenograft model; assay type: in vivo, nude Crl: CD1-Foxnlnu mice; conditions: FIG. 7
Text: All the animals were maintained in a pathogen-free facility under a day—night cycle.

[16] = system: XIAP and cIAP1 protein expression; experiment: Immunoblots from tumor tissues (in vivo target engagement); parameters: species or system mice; conditions: vs vehicle treated tumors
Method: Mice were randomly assigned to groups by a blinded independent investigator. Throughout the study, the tumor was measured with an electronic digital caliper at a regular interval, and the tumor volume was calculated using standard formula V=Π/6×a2×b, where ‘a’ is the short and ‘b’ is the long tumor axis. At the end of the experiment, mice were sacrificed, and subcutaneous tumors were dissected for further studies. Parts of harvested tumors were minced into small pieces with sterile forceps and scissors and homogenized for lysate preparation.

[17] = system: TRAIL mediated tumor cell cytotoxic response; experiment: Combination cytotoxicity with DR5 ligand TRAIL; assay type: cell-based; conditions: in vitro, FIG. 4
[18] = system: cancer cell lines; experiment: Cytotoxic potential against cancer cell lines (overall statement); assay type: cell-based; conditions: all cancer cells tested
Method: as §1, §2

What does the source list for `CC[C@H](C)[C@H](NC(=O)[C@@H]1CC[C@H](c2ccc(C)o2)N1C(=O)[C@@H](NC(=O)[C@H](C)NC)C(C)C)C(=O)NC(c1ccccc1)c1ccccc1` [Compound 6, (2S,5R)-N-((2S,3S)-1-(benzhydrylamino)-3-methyl-1-oxopentan-2-yl)-1-((S)-3-methyl-2-((S)-2-(methylamino)propanamido)butanoyl)-5-(5-methylfuran-2-yl)pyrrolidine-2-carboxamide]?
inhibition at 10 µM ([1]; 10 μM, 48 hours, SRB assay, read-out: In vitro cytotoxicity at 10 μM dose, SW 620 (percent growth inhibition)): 59.27 ± 0.1%; IC50 ([1]; Colon, SW620): 4.31 µM; inhibition at 10 µM ([2]; 10 μM, 48 hours, SRB assay, read-out: In vitro cytotoxicity at 10 μM dose, HT29 (percent growth inhibition)): 65 ± 3.6%; IC50 ([2]; Colon, HT29): 6.66 µM; inhibition at 10 µM ([3]; 10 μM, 48 hours, SRB assay, read-out: In vitro cytotoxicity at 10 μM dose, HCT 116 (percent growth inhibition)): 61.3 ± 2.9%; IC50 ([3]; Colon, HCT116): 8.93 µM; inhibition at 48 h, 10 μM [4]: 18.4 ± 2.1%; IC50 ([5]; Primates, Kidney (monkey), VERO): > 10 µM; Toxicity against VERO cells (in words) ([5]; non-human VERO cells): limited or minimal toxicity; IC50 [6]: 5.79 µM; IC50 [7]: 5.02 µM; IC50 [8]: 7.2 µM; IC50 [9]: 6.02 µM; IC50 [10]: 3.91 µM; IC50 [11]: 7.3 µM; IC50 [12]: 6.7 µM; IC50 [13]: 9.1 µM; Stability in HLM ([14]; HLM): quite stable; Stability in MLM ([14]; MLM): quite stable; Stability in SGF ([14]; SGF, listed as C6): highly stable; also recorded: quite stable; Stability in SIF ([14]; SIF, listed as C6): highly stable; also recorded: quite stable; Stability in microsome ([14]; microsome): highly stable; Stability in plasma ([14]; plasma): quite stable; In vivo anti tumor efficacy [15]: potent anti tumor efficacy; XIAP and cIAP1 protein expression in tumors [16]: reduced XIAP and cIAP1 protein expression; Sensitization of TRAIL mediated tumor cell cytotoxic response [17]: robustly sensitizes; Cytotoxic activity against cancer cells (in words) [18]: potent cytotoxic activity
